# Assay results: patent US11053212B2, “Benzimidazole derivatives as bromodomain inhibitors” (GLAXOSMITHKLINE INTELLECTUAL PROPERTY DEVELOPMENT LIMITED, priority 2015, dated 2021)
# Where a name gives a salt, the structure may show the parent alone.
# How the values were obtained:
# BRD4 BD1 = biological target: T1, BRD4 BD1 (Homo sapiens, UniProt O60885, Y390A); experiment: TR-FRET binding assay, BRD4 BD1 (mutant protein); details: 10 nM mutated bromodomain protein, Alexa Fluor647 ligand at Kd, read-out: mean pIC50 in the BRD4 BD1 assay (converted)
# T1 construct: BRD4 (1-477) (Y97A) and (Y390A); made in house; host or cells: E. coli (pET15b vector)
# Method: (§1) Biological Data Time Resolved Fluorescence Resonance Energy Transfer (TR-FRET) Assay
# (§2) Binding was assessed using a time resolved fluorescent resonance energy transfer binding assay. This utilises a 6 His purification tag at the N-terminal of the proteins as an epitope for an anti-6 His antibody labeled with Europium chelate (PerkinElmer AD0111) allowing binding of the Europium to the proteins which acts as the donor fluorophore.
# (§3) In the absence of a competing compound, excitation of the Europium causes the donor to emit at λ618 nm which excites the Alexa labelled bromodomain binding compound leading to an increased energy transfer that is measurable at λ647 nM. In the presence of a sufficient concentration of a compound that can bind these proteins, the interaction is disrupted leading to a quantifiable drop in fluorescent resonance energy transfer.
# The binding of compounds of the invention to Bromodomains BRD2, BRD3, BRD4 and BRDT was assessed using mutated proteins to detect differential binding to either Binding Domain 1 (BD1) or Binding Domain 2 (BD2) on the bromodomain. […] Therefore in the final assay conditions, binding of the fluoroligand to the mutated domain cannot be detected and subsequently the assay is suitable to determine the binding of compounds to the single non-mutated bromodomain. […]
# All assay components were dissolved in buffer composition of 50 mM HEPES pH7.4, 50 mM NaCl, 5% Glycerol, 1 mM DTT and 1 mM CHAPS. […] Plates were then read on the Envision plate reader, (⋅ex=317 nm, donor ⋅em=615 nm; acceptor ⋅em=665 nm; Dichroic LANCE dual). Time resolved fluorescent intensity measurements were made at both emission wavelengths and the ratio of acceptor/donor was calculated and used for data analysis. […]
# BRD4 BD2 = biological target: T2, BRD4 BD2 (Homo sapiens, UniProt O60885, Y97A); experiment: TR-FRET binding assay, BRD4 BD2 (mutant protein); details: 10 nM mutated bromodomain protein, Alexa Fluor647 ligand at Kd, read-out: mean pIC50 in the BRD4 BD2 assay (converted)
# T2 construct: BRD4 (1-477) (Y97A) and (Y390A); made in house; host or cells: E. coli (pET15b vector)
# Method: as §1, §2, §3
# The binding of compounds of the invention to Bromodomains BRD2, BRD3, BRD4 and BRDT was assessed using mutated proteins to detect differential binding to either Binding Domain 1 (BD1) or Binding Domain 2 (BD2) on the bromodomain. […] Therefore in the final assay conditions, binding of the fluoroligand to the mutated domain cannot be detected and subsequently the assay is suitable to determine the binding of compounds to the single non-mutated bromodomain.
# Recombinant Human Bromodomains [(BRD2 (1-473) (Y113A) and (Y386A), BRD3 (1-435) (Y73A) and (Y348A) BRD4 (1-477) (Y97A) and (Y390A) and BRDT (1-397) (Y66A) and (Y309A)] were expressed in E coli cells (in pET15b vector for BRD2/3/4 and in pET28a vector for BRDT) with a 6-His tag at the N-terminal. The His-tagged Bromodomain pellet was resuspended in 50 mM HEPES (pH7.5), 300 mM NaCl, 10 mM imidazole & 1 μl/ml protease inhibitor cocktail and extracted from the E coli cells using sonication and purified using a nickel sepharose high performance column, the proteins were washed and then eluted with a linear gradient of 0-500 mM imidazole with buffer 50 mM HEPES (pH7.5), 150 mM NaCl, 500 mM imidazole, over 20 column volumes. Final purification was completed by Superdex 200 prep grade size exclusion column. Purified protein was stored at −80° C. in 20 mM HEPES pH 7.5 and 100 mM NaCl.
# All assay components were dissolved in buffer composition of 50 mM HEPES pH7.4, 50 mM NaCl, 5% Glycerol, 1 mM DTT and 1 mM CHAPS. The final concentration of bromodomain proteins were 10 nM and the Alexa Fluor647 ligand was at Kd. These components were premixed and 5 μl of this reaction mixture was added to all wells containing 50 nl of various concentrations of test compound or DMSO vehicle (0.5% DMSO final) in Greiner 384 well black low volume microtitre plates and incubated in dark for 30 minutes at rt. […] of detection mixture containing 1.5 nM final concentration anti-6His Europium chelate was added to all wells and a further dark incubation of at least 30 minutes was performed. Plates were then read on the Envision plate reader, (⋅ex=317 nm, donor ⋅em=615 nm; acceptor ⋅em=665 nm; Dichroic LANCE dual). Time resolved fluorescent intensity measurements were made at both emission wavelengths and the ratio of acceptor/donor was calculated and used for data analysis. All data was normalized to the mean of 16 high (inhibitor control—Example 11 of WO 2011/054846A1) and 16 low (DMSO) control wells on each plate. A four parameter curve fit of the following form was then applied: y=a+((b−a)/(1+(10^x/10^c)^d) Where ‘a’ is the minimum, […], ‘c’ is the pIC50 and […].
# [1] = tested on: LPS induced MCP-1 production; experiment: LPS induced MCP-1 production from human whole blood; type: cell-based; details: LPS 200 ng/mL, 18-24 hours, read-out: mean pIC50, LPS induced MCP-1 production (converted)
# Excerpt: Measurement of LPS Induced MCP-1 Production from Human Whole Blood
# Activation of monocytic cells by agonists of toll-like receptors such as bacterial lipopolysaccharide (LPS) results in production of key inflammatory mediators including MCP-1. Such pathways are widely considered to be central to the pathophysiology of a range of auto-immune and inflammatory disorders. Blood is collected in a tube containing Sodium heparin (Leo Pharmaceuticals) (10 units of heparin/mL of blood). 96-well compound plates containing 1 μL test sample in 100% DMSO were prepared (two replicates on account of donor variability). 130 μL of whole blood was dispensed into each well of the 96-well compound plates and incubated for 30 min at 37° C., 5% CO2. 10 μL of lipopolysaccharide (from Salmonella typhosa; L6386) made up in PBS (200 ng/mL final assay concentration) was added to each well of the compound plates. The plates were then placed in the humidified primary cell incubator for 18-24 hours at 37° C., 5% CO2. 140 μL of PBS was added to all wells of the compound plates containing blood. The plates were then sealed and centrifuged for 10 mins at 2500 rpm. 25 μL of cell supernatant was placed in a 96-well MSD plate pre-coated with human MCP-1 capture antibody. The plates were sealed and placed on a shaker at 600 rpm for 1 hour (r.t). 25 μL of Anti-human MCP-1 antibody labelled with MSD SULFO-TAG™ reagent is added to each well of the MSD plate (stock 50× was diluted 1:50 with Diluent 100, final assay concentration is 1 μg/mL). The plates were then re-sealed and shaken for another hour before washing with PBS. 150 μL of 2×MSD Read Buffer T (stock 4×MSD Read Buffer T was diluted 50:50 with de-ionised water) was then added to each well and the plates read on the MSD Sector Imager 6000. Concentration response curves for each compound were generated from the data and an pIC50 value was calculated.
IC50 (BRD4 BD1),IC50 (BRD4 BD2),IC50 [1],Structure (SMILES)
50.1 nM,398 nM,10 nM,"COCC(COC)n1c(-c2cc(C)c(=O)n(C)c2)nc2cc(CN[C@H](C(=O)OC(C)C)[C@@H](C)O)ccc21 [Example 305, (2S,3R)-Isopropyl 2-(((1-(1,3-dimethoxypropan-2-yl)-2-(1,5-dimethyl-6-oxo-1,6-dihydropyridin-3-yl)-1H-benzo[d]imidazole-5-yl)methyl)amino)-3-hydroxybutanoate]"
200 nM,1260 nM,1000 nM,"COCC(COC)n1c(-c2cc(C)c(=O)n(C)c2)nc2cc(CN[C@H](C(=O)O)[C@@H](C)O)ccc21 [Example 66, (2S,3R)-2-(((1-(1,3-dimethoxypropan-2-yl)-2-(1,5-dimethyl-6-oxo-1,6-dihydropyridin-3-yl)-1H-benzo[d]imidazol-5-yl)methyl)amino)-3-hydroxybutanoic acid hydrochloride]"
251 nM,631 nM,3980 nM,"Cc1cc(-c2nc3cc(CN[C@H](C(=O)O)[C@@H](C)O)ccc3n2CC2CCOCC2)cn(C)c1=O [Example 68, (2S,3R)-2-(((2-(1,5-dimethyl-6-oxo-1,6-dihydropyridin-3-yl)-1-((tetrahydro-2H-pyran-4-yl)methyl)-1H-benzo[d]imidazol-5-yl)methyl)amino)-3-hydroxybutanoic acid hydrochloride]"
